Usually IC50 stands for the point on the concentration scale where inhibition reaches its midpoint. Read a high IC50 as weaker potency. As a reminder, the % Inhibition is the percentage by which the read-out fell short of the control. Read a low % Inhibition as a response near the control. As a reminder, the GI50 is the concentration giving 50% growth inhibition.

Each structure is given as a SMILES string. Where only a bound is given, the exact number is not on record here.

T1 sequence (P35790 75-457): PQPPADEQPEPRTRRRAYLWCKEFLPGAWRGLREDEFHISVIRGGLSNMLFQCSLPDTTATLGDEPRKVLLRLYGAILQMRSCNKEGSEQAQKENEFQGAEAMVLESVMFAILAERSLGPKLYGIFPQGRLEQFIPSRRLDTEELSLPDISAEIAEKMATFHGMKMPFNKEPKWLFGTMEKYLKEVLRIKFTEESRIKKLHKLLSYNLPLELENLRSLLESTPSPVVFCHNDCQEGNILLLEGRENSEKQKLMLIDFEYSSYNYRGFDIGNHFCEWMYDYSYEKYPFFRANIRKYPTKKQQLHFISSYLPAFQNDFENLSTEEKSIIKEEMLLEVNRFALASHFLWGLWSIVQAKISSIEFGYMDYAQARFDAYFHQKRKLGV

The first assay concerns the target T1, CKα1 (Homo sapiens, UniProt P35790).
T1 construct: an N-terminally His-tagged truncated form of CKα1 (Δ75–457) was cloned into a pET-28a vector; His tag (N); made in house; host or cells: E. coli BL21 (DE3) Star
Description: Choline kinase assay ([methyl-14C]choline into PCho, purified enzyme). Format: biochemical. The conditions noted are these: concentration required to inhibit CKα1 enzyme by 50%. As for the experimental part:
The protein was produced and purified as previously described. Briefly, an N-terminally His-tagged truncated form of CKα1 (Δ75–457) was cloned into a pET-28a vector and expressed at 37 °C in E. coli BL21 (DE3) Star cells using 1 mM isopropyl β-D-1-thiogalactopyranoside (IPTG). After centrifugation, the cellular pellet was resuspended in 50 mM Tris-HCl pH 7.5, 500 mM NaCl, 0.2 mM phenylmethylsulphonyl fluoride (PMSF), DNase, and 0.5 mM β-mercaptoethanol, sonicated and subjected to a two-step purification procedure to isolate the target enzyme. […] Protein elution was completed using buffer A + 400 mM imidazole. A second size-exclusion chromatography step was then carried out to achieve complete purity. To this end, we used a HiPrep 26/60 Sephacryl 100 HR column (GE Healthcare, Little Chalfont, Buckinghamshire, UK) and a 20 mM Tris/HCl pH 7.5, 150 mM NaCl running buffer.
To study the effect of the compounds on CKα, an in vitro enzymatic assay was performed using the purified enzyme as previously reported in [19, 28, 29]. Briefly, the incorporation of ^14C from [methyl-^14C]choline into PCho in either the absence (control) or presence of different inhibitors at varying concentrations was used to determine the CK activity. The reaction mixture included 20 ng of purified CKα1, 10 mM ATP, 10 mM MgCl2, 100 mM Tris-HCl pH 8.5, and increasing concentrations of compounds. The mixture was preincubated at 37 °C for 5 min. Then, [methyl-^14C]choline chloride (1 mM, 4500 dpm/nmol) was added and the reaction was left to proceed for 10 min at 37 °C. The assay was stopped by immersing the reaction tubes in boiling water. PCho was separated by Thin Layer Chromatography using methanol/0.6% NaCl/28% NH4OH in water (50:50:5, v/v/v) as solvent. The radioactivity associated into PCho was determined in a Beckman 6000-TA (Madrid, Spain) liquid scintillation counter. The 50% inhibitory concentrations (IC50 values) were determined from the % enzyme activity at different concentrations of synthetic inhibitors relative to the control by using a sigmoidal dose–response curve (ED50plus v1.0 software).
Compound `[Br-].[Br-].c1cc2c(N3CCCCC3)nc[n+](Cc3ccc(OCCOc4ccc(C[n+]5cnc(N6CCCCC6)c6ccsc65)cc4)cc3)c2s1` [Ff-5] registered an IC50 of at least 5 µM.
Still for that read-out and setting: with `[Br-].[Br-].c1cc2c(N3CCCCC3)nc[n+](Cc3ccc(CCCCc4ccc(C[n+]5cnc(N6CCCCC6)c6ccsc65)cc4)cc3)c2s1` [Ff-6] the figure was at least 10 µM.

Staying with this assay, now noted: purified CKα1, inhibitor 10 µM, end-point assay.
With `[Br-].[Br-].c1cc2c(N3CCCCC3)nc[n+](Cc3ccc(OCCOc4ccc(C[n+]5cnc(N6CCCCC6)c6ccsc65)cc4)cc3)c2s1` [Ff-5], the “% Inhibition at 10 µM” value is 64.21%.
In the case of `[Br-].[Br-].c1cc2c(N3CCCCC3)nc[n+](Cc3ccc(CCCCc4ccc(C[n+]5cnc(N6CCCCC6)c6ccsc65)cc4)cc3)c2s1` [Ff-6], the “% Inhibition at 10 µM” value stood at 46.43%.

Still in this assay, the particulars now being: purified CKα1, inhibitor 30 µM, end-point assay.
On to `[Br-].[Br-].c1cc2c(N3CCCCC3)nc[n+](Cc3ccc(OCCOc4ccc(C[n+]5cnc(N6CCCCC6)c6ccsc65)cc4)cc3)c2s1` [Ff-5], for which the “% Inhibition at 30 µM” value worked out at 85.71%.
On the same count and under the same terms, with `[Br-].[Br-].c1cc2c(N3CCCCC3)nc[n+](Cc3ccc(CCCCc4ccc(C[n+]5cnc(N6CCCCC6)c6ccsc65)cc4)cc3)c2s1` [Ff-6] the figure was 73.19%.

In another assay the test system is A549. Description: Antiproliferative activity, resazurin assay, 72 h. Format: cell-based, human.
Conditions: not given
As for the experimental part: (§1) Human cervix carcinoma (HeLa), Non-small lung adenocarcinoma (A549), Colon adenocarcinoma (HT29), and human triple negative breast cancer (MDA-MB-231) were cultured in Dulbecco’s modified Eagle’s media (DMEM). B-acute lymphoblastic leukemia (RS4;11 and SEM), T-acute lymphoblastic leukemia (Jurkat), and human promyelocytic cells (HL-60), were cultured in RPMI-1640 medium. Both media were purchased from Gibco, Life Technologies (Milan, Italy) and supplemented with 10% Fetal Bovine Serum (FBS, Invitrogen, Milan, Italy,). Every six months, each cell line was checked for the presence of mycoplasma by RT-PCR.
(§2) Stock solutions (10 mM) of the different compounds were made in DMSO. Cancer cells were seeded in tissue-treated, flat bottom, 384-well plates (Corning) according to their optimal density, (A549 1000 cells/wells; MDA-MB-231, HeLa and HT-29 2000 cells/well and finally Jurkat, HL-60 SEM and RS4;11 20.000 cells/well) in 27 µL of complete medium per well.
(§3) The day after cell seeding and immediately before cell treatment, 10 mM stock solutions of the compounds were pre-diluted to a […] concentration in 250 µL of Hank’s in a 96-well plate (Corning). Subsequent 1:5 dilutions were carried out using a microlab STAR 96-CORE liquid handling system (Hamilton), a robotized liquid handling tool that was employed for all steps, from cell seeding to drug dilution and cell treatment to ensure high reproducibility while reducing time for large screening execution. This pre-dilution step was necessary to avoid DMSO-related cytotoxicity and compound precipitation in the cell culture medium. In every case, DMSO concentration never exceeded 0.1%.
(§4) Positive (Bortezomib 1 µM) and negative (0.1% DMSO) controls were included in all the screened plates to allow for monitoring the Z’ factor throughout the entire screening. Cells were treated with 3 µL of the previously made dilutions; thus, generating a 6-point 5-fold dose–response curve starting from 10 µM. Within a plate, each drug concentration was tested in duplicate in two independent experiments for each compound.
(§5) Treated cells were then placed inside the CO2 incubator for 72 h at 37 °C. Cell viability was assessed by resazurin assay, in which 3 µL of resazurin per well were added using the previously described automated platform. Plates were placed in the incubator at 37 °C for 2 h, and then the fluorescence of each plate was read using a Spark 10 M multimode microplate reader (Tecan Group Ltd., Mannedorf, Switzerland) with 535 nm excitation wavelength and 600 nm emission wavelength.
A general note: Alamar Blue is a resazurin reagent that responds to reducing activity.
Regarding `[Br-].[Br-].c1cc2c(N3CCCCC3)nc[n+](Cc3ccc(OCCOc4ccc(C[n+]5cnc(N6CCCCC6)c6ccsc65)cc4)cc3)c2s1` [Ff-5], growth was halved (GI50) at 0.34 ± 0.06 µM.
On the same count and under the same terms, next, `[Br-].[Br-].c1cc2c(N3CCCCC3)nc[n+](Cc3ccc(CCCCc4ccc(C[n+]5cnc(N6CCCCC6)c6ccsc65)cc4)cc3)c2s1` [Ff-6]: 0.19 ± 0.03 µM.

The next assay concerns HL-60. Description: Antiproliferative activity, resazurin assay, 72 h. Format: cell-based, human.
Conditions: not given
As for the experimental part: as §1, §2, §3, §4, §5
`[Br-].[Br-].c1cc2c(N3CCCCC3)nc[n+](Cc3ccc(OCCOc4ccc(C[n+]5cnc(N6CCCCC6)c6ccsc65)cc4)cc3)c2s1` [Ff-5]: growth was halved (GI50) at 0.2 ± 0.01 µM.
Turning to `[Br-].[Br-].c1cc2c(N3CCCCC3)nc[n+](Cc3ccc(CCCCc4ccc(C[n+]5cnc(N6CCCCC6)c6ccsc65)cc4)cc3)c2s1` [Ff-6], the GI50 was determined as 0.19 ± 0.01 µM.

The subject of the next assay is HT29. Description: Antiproliferative activity, resazurin assay, 72 h. It counts as cell-based, human.
Conditions: not given
As for the experimental part: as §1, §2, §3, §4, §5
`[Br-].[Br-].c1cc2c(N3CCCCC3)nc[n+](Cc3ccc(OCCOc4ccc(C[n+]5cnc(N6CCCCC6)c6ccsc65)cc4)cc3)c2s1` [Ff-5] displayed a 50% growth inhibitory concentration (GI50) of 1.73 ± 0.3 µM.
The same measure, in the same setting: with `[Br-].[Br-].c1cc2c(N3CCCCC3)nc[n+](Cc3ccc(CCCCc4ccc(C[n+]5cnc(N6CCCCC6)c6ccsc65)cc4)cc3)c2s1` [Ff-6] the figure was 0.93 ± 0.04 µM.

A further assay concerns HeLa. Description: Antiproliferative activity, resazurin assay, 72 h. Format: cell-based, human.
Conditions: not given
As for the experimental part:
as §1, §2, §3, §4, §5
Consider `[Br-].[Br-].c1cc2c(N3CCCCC3)nc[n+](Cc3ccc(OCCOc4ccc(C[n+]5cnc(N6CCCCC6)c6ccsc65)cc4)cc3)c2s1` [Ff-5], for which the GI50 was determined as 1.03 ± 0.1 µM.
`[Br-].[Br-].c1cc2c(N3CCCCC3)nc[n+](Cc3ccc(CCCCc4ccc(C[n+]5cnc(N6CCCCC6)c6ccsc65)cc4)cc3)c2s1` [Ff-6]: the GI50 came to 0.42 ± 0.05 µM. Against the preceding compound, the GI50 is about 2.5-fold lower.

The test system of another assay is Jurkat. As to the kind of experiment: Antiproliferative activity, resazurin assay, 72 h.
Conditions: not given
It counts as cell-based, human. As for the experimental part:
as §1, §2, §3, §4, §5
Consider `[Br-].[Br-].c1cc2c(N3CCCCC3)nc[n+](Cc3ccc(OCCOc4ccc(C[n+]5cnc(N6CCCCC6)c6ccsc65)cc4)cc3)c2s1` [Ff-5], for which the GI50 was above 10 µM.
`[Br-].[Br-].c1cc2c(N3CCCCC3)nc[n+](Cc3ccc(CCCCc4ccc(C[n+]5cnc(N6CCCCC6)c6ccsc65)cc4)cc3)c2s1` [Ff-6] registered a GI50 of 6.7 ± 0.8 µM.

The test system of the next assay is MDA-MB-231. As to the kind of experiment: Antiproliferative activity, resazurin assay, 72 h. Format: cell-based, human.
Conditions: not given
As for the experimental part: as §1, §2, §3, §4, §5
Compound `[Br-].[Br-].c1cc2c(N3CCCCC3)nc[n+](Cc3ccc(OCCOc4ccc(C[n+]5cnc(N6CCCCC6)c6ccsc65)cc4)cc3)c2s1` [Ff-5] displayed a GI50 of 1.1 ± 0.2 µM.
With `[Br-].[Br-].c1cc2c(N3CCCCC3)nc[n+](Cc3ccc(CCCCc4ccc(C[n+]5cnc(N6CCCCC6)c6ccsc65)cc4)cc3)c2s1` [Ff-6], the concentration for 50% growth inhibition (GI50) is 0.5 ± 0.02 µM. This GI50 is about 2.2-fold lower than that of the compound before.

The subject of a further assay is RS 4;11. As to the kind of experiment: Antiproliferative activity, resazurin assay, 72 h. It counts as cell-based, human.
Conditions: not given
As for the experimental part: as §1, §2, §3, §4, §5
As for `[Br-].[Br-].c1cc2c(N3CCCCC3)nc[n+](Cc3ccc(OCCOc4ccc(C[n+]5cnc(N6CCCCC6)c6ccsc65)cc4)cc3)c2s1` [Ff-5], growth was halved (GI50) at 2.45 ± 0.02 µM.
Same read-out and setting: next, `[Br-].[Br-].c1cc2c(N3CCCCC3)nc[n+](Cc3ccc(CCCCc4ccc(C[n+]5cnc(N6CCCCC6)c6ccsc65)cc4)cc3)c2s1` [Ff-6]: 1.5 ± 0.2 µM.

The test system of a further assay is SEM cells. As to the kind of experiment: Antiproliferative activity, resazurin assay, 72 h. Format: cell-based, human.
Conditions: not given
As for the experimental part:
as §1, §2, §3, §4, §5
As for `[Br-].[Br-].c1cc2c(N3CCCCC3)nc[n+](Cc3ccc(OCCOc4ccc(C[n+]5cnc(N6CCCCC6)c6ccsc65)cc4)cc3)c2s1` [Ff-5], the GI50 was determined as 3.27 ± 0.03 µM.
On the same count and under the same terms, with `[Br-].[Br-].c1cc2c(N3CCCCC3)nc[n+](Cc3ccc(CCCCc4ccc(C[n+]5cnc(N6CCCCC6)c6ccsc65)cc4)cc3)c2s1` [Ff-6] the figure was 2.52 ± 0.2 µM.

Source of the values: article PMC9032693, “Biological Evaluation of New Thienopyridinium and Thienopyrimidinium Derivatives as Human Choline Kinase Inhibitors” (Pharmaceutics, 2022).
